{"source": "patent US11357850B2", "about": "“Methods for treating breast cancer using INOS-inhibitory compositions” (The Methodist Hospital, priority 2014, dated 2022)", "key": {"[1]": {"test_system": "unresectable stage III or IV advanced melanoma", "conditions": "cited from earlier work"}, "SUM159": {"test_system": "SUM159", "assay": "Cell proliferation assay (WST-1), calcium channel antagonists", "assay_type": "cell-based, human", "conditions": "0, 1, 5, and 10 μM for 72 hrs", "method": "(§1) Cell Proliferation Assay In Vitro. Mesenchymal-like, TNBC cell lines, MDA-MB-231 and SUM159, were grown in DMEM supplemented with 10% fetal bovine serum and 1% antibiotic-antimycotic. Stock solutions of various calcium-channel antagonists (amlodipine, nicardipine, nifedipine, felodipine, isradipine, diltiazem, verapamil, lacidipine, nisoldipine, nitrendipine, nivaldipine, azelnidipine, barnidipine, benidipine, efonidipine, lercanidipine, pranidipine, and manidipine) were prepared in DMSO. Effects on cell proliferation were assayed with the WST-1 method. Briefly, 1,000 (SUM159) and 2,000 (MDA-MB-231) cells/well were plated in a 96-well plate and treated with different concentrations (0, 1, 5, and 10 μM) of calcium channel antagonists for 72 hrs. Proliferation rate was determined by adding premixed WST-1 reagent. After incubation at 37° C. for three hrs, absorbance was read at 450 nm (reference wavelength 690 nm). Results were normalized against vehicle (100%). The antagonists were considered active when proliferation was decreased in ≥30%."}, "MDA-MB-231": {"test_system": "MDA-MB-231", "assay": "Cell proliferation assay (WST-1), calcium channel antagonists", "assay_type": "cell-based, human", "conditions": "0, 1, 5, and 10 μM for 72 hrs", "method": "as §1"}, "advanced melanoma": {"test_system": "advanced melanoma", "conditions": "2 mg/kg, 173 patients; cited from earlier work"}, "[2]": {"test_system": "recurrent or metastatic head and neck squamous cell carcinoma", "conditions": "cited from earlier work"}, "[3]": {"test_system": "ipilimumab-refractory metastatic melanoma", "conditions": "cited from earlier work"}, "[4]": {"test_system": "metastatic PD-L1-positive NSCLC", "conditions": "cited from earlier work"}, "[5]": {"test_system": "advanced, PD-L1-positive TNBC", "conditions": "cited from earlier work"}, "MCF10A": {"test_system": "MCF10A", "assay": "Western blot of PERK/eIF2α/ATF4/ATF3 axis with recombinant TGFβ1", "assay_type": "cell-based", "conditions": "10 ng/mL for 24 hrs", "excerpt": "FIG. 3A, FIG. 3B, FIG. 3C, FIG. 3D, FIG. 3E, FIG. 3F, FIG. 3G, FIG. 311, FIG. 3I, and FIG. 3J show iNOS knockdown impairs tumorigenicity and EMT by a dual impact on HIF1α and endoplasmic reticulum (ER) stress/TGFβ/AFT4/ATF3 crosstalk. Proliferation (FIG. 3A), migration (FIG. 3B), and self-renewal capacity (primary and secondary mammospheres) (FIG. 3C) in MDA-MB-231 cells transfected with two different NOS2-directed shRNAs (shRNA1, shRNA2) compared with empty vector (shRNA-EV). […] Selective iNOS inhibition reduced hypoxia (HIF1α), ER stress markers (IRE1α, ATF4) (FIG. 3F), phospho-Smad2/3, Smad2/3 and mature TGFβ protein levels in MDA-MB-231 and SUM159 cells (FIG. 3G). FIG. 3H: Recombinant TGFβ1 (10 ng/mL for 24 hrs) activates the PERK/eIF2α/ATF4/ATF3 axis in MCF10A. […] FIG. 3J: Selective iNOS inhibition is postulated to impair EMT and tumor cell migration by an impact on HIF1α, ER stress (IRE1α/XBP1) and the crosstalk between ATF4, ATF3 and TGFβ. Results were normalized to empty vector. Data are presented as mean±SEM. ****p<0.0001, ***p<0.001, **p<0.01. One-way ANOVA and Bonferroni's post-hoc test;\nWestern Blot. Cells were cultured at a density of 2.5×10^5 cells/well in 6-well plates with or without iNOS inhibitors for 96 hrs. Cells were resuspended in 1× lysis buffer (Cell Signaling Technology, Inc.) and 1× protease/phosphatase inhibitor cocktail (Thermo Scientific). […]"}, "MDA-MB-231 xenografts": {"test_system": "MDA-MB-231 xenografts", "assay": "MDA-MB-231 xenografts treated with L-NMMA, docetaxel, combination", "assay_type": "in vivo, mice", "method": "(§2) Animal Studies. Female SCID Beige mice (4-5 weeks old) (Harlan Laboratories, Houston, Tex., USA) were housed under standard laboratory conditions (22° C.; 12 hrs/12 hrs light/dark cycle and free access to food and water). Either MDA-MB-231 or SUM159 cells (3×10^6) were injected in the right mammary fat pad. Once the tumors reached 150-200 mm^3, the mice were randomized into different groups as follows (n=10/group): 1) Vehicle (saline, i.p.), 2) L-NMMA (either 80 mg/kg or 200 mg/kg, i.p., daily), 3) Docetaxel (20 mg/kg), 4) Combo (L-NMMA and docetaxel).\n(§3) Self-renewal and tumor-initiating capacity was determined by MSFE and limiting-dilution assays, respectively, in single cells isolated from tumor tissue. Briefly, breast tumor tissue was minced, digested in DMEM:F12 medium with 100 U/mL of collagenase type 3 (Worthington, Lakewood, N.J., USA) and 0.8 U/mL of dispase (Gibco, Carlsbad, Calif., USA) at 37° C. for 45 min. MSFE was assayed in isolated single cells as stated above. The limiting dilution assay (LDA) was performed injecting either […] isolated cells from tumor tissue in the mammary fat pad of SCID Beige mice (n=12/group). Flow cytometric analysis of CD44^+/CD24^−/low cell population was assayed using published methods.\nThe role of L-NMMA was then investigated, either alone or in combination with docetaxel in a different TNBC mouse model. Docetaxel (20 mg/kg at days 0 and 21) and 200 mg/kg L-NMMA (daily) were given to MDA-MB-231 xenograft-bearing mice for 31 days."}, "SUM159 xenografts": {"test_system": "SUM159 xenografts", "assay": "SUM159 xenografts treated with L-NMMA, docetaxel, combination", "assay_type": "in vivo, mice", "method": "as §2, §3\nTo answer this question, daily injections of 80 mg/kg L-NMMA were first given to SUM159 xenograft-bearing mice alone or in combination with docetaxel (20 mg/kg). […] The inventor next analyzed the impact on CSC self-renewal by the MSFE assay."}}, "note": "Like-named read-outs stand apart in the source and are kept apart here."}
{"compound": "ipilimumab: comparator in the KEYNOTE-006 melanoma study", "values": [{"measurement": "estimated 6-month PFS rate", "setting": "[1]; ipilimumab 3 mg/kg Q3W, four cycles", "value": 26.5, "unit": "%"}, {"measurement": "estimated 12-month survival rate", "setting": "[1]; ipilimumab 3 mg/kg Q3W", "value": 58.2, "unit": "%"}, {"measurement": "rate of Grade 3-5 treatment-related AEs", "setting": "[1]; ipilimumab 3 mg/kg Q3W", "value": 19.9, "unit": "%"}, {"measurement": "response rate", "setting": "[1]; ipilimumab 3 mg/kg Q3W", "value": 11.9, "unit": "%"}]}
{"compound": "CC1=C(C(=O)OC(C)C)C(c2cccc([N+](=O)[O-])c2)C(C(=O)OC2CN(C(c3ccccc3)c3ccccc3)C2)=C(N)N1", "note": "(centres unmarked) [azelnidipine]", "values": [{"measurement": "proliferation", "setting": "SUM159", "value": "dose-dependent decrease in proliferation"}, {"measurement": "proliferation", "setting": "MDA-MB-231", "value": "dose-dependent decrease in proliferation"}]}
{"compound": "pembrolizumab: humanized monoclonal antibody of the IgG4/κ isotype blocking the interaction between PD-1 and its ligands", "values": [{"measurement": "overall response rate", "setting": "advanced melanoma", "value": 24, "unit": "%"}, {"measurement": "ORR", "setting": "[2]; 10 mg/kg Q2W or 200 mg Q3W, n=174", "value": 16, "unit": "%"}, {"measurement": "responding patients with responses of 6 months or longer", "setting": "[2]; 23 of 28", "value": 82, "unit": "%"}, {"measurement": "SAEs, patients", "setting": "[2]; in vivo", "value": 45, "unit": "%"}, {"measurement": "dyspnea, patients", "setting": "[2]; in vivo", "value": 20, "unit": "%"}, {"measurement": "fatigue, patients", "setting": "[2]; in vivo", "value": 46, "unit": "%"}, {"measurement": "6-month PFS rate", "setting": "[3]; 2 mg/kg Q3W", "value": 34, "unit": "%"}, {"measurement": "Grade 3-4 treatment-related fatigue, patients", "setting": "[3]; 2 mg/kg, 178 patients", "value": 1, "unit": "%"}, {"measurement": "Grade 3-4 generalized edema and myalgia (each), patients", "setting": "[3]; 2 mg/kg", "value": 1, "unit": "%"}, {"measurement": "Grade 3-4 treatment-related adverse events, patients", "setting": "[3]; 2 mg/kg", "value": 11, "unit": "%"}, {"measurement": "6-month PFS rate", "setting": "[3]; 10 mg/kg Q3W", "value": 38, "unit": "%"}, {"measurement": "Grade 3-4 treatment-related fatigue, patients", "setting": "[3]; 10 mg/kg, 179 patients", "value": "< 1", "unit": "%"}, {"measurement": "Grade 3-4 hypopituitarism, colitis, diarrhea, decreased appetite, hyponatremia, and pneumonitis (each), patients", "setting": "[3]; 10 mg/kg", "value": 1, "unit": "%"}, {"measurement": "Grade 3-4 treatment-related adverse events, patients", "setting": "[3]; 10 mg/kg", "value": 14, "unit": "%"}, {"measurement": "patients having a DoR of ≥6 months", "setting": "[4]; 11 patients", "value": 44, "unit": "%"}, {"measurement": "responses ongoing at the time of the analysis, patients", "setting": "[4]; 21 of 25", "value": 85, "unit": "%"}, {"measurement": "objective response rate (ORR)", "setting": "[4]; 61 patients with PD-L1 strongly positive tumors, all partial responses", "value": 41, "unit": "%"}, {"measurement": "estimated 6-month PFS rate", "setting": "[1]; pembrolizumab 10 mg/kg Q2W", "value": 47.3, "unit": "%"}, {"measurement": "estimated 6-month PFS rate", "setting": "[1]; pembrolizumab 10 mg/kg Q3W", "value": 46.4, "unit": "%"}, {"measurement": "estimated 12-month survival rate", "setting": "[1]; pembrolizumab Q2W", "value": 74.1, "unit": "%"}, {"measurement": "rate of Grade 3-5 treatment-related AEs", "setting": "[1]; pembrolizumab Q2W", "value": 13.3, "unit": "%"}, {"measurement": "response rate", "setting": "[1]; pembrolizumab Q2W", "value": 33.7, "unit": "%"}, {"measurement": "estimated 12-month survival rate", "setting": "[1]; pembrolizumab Q3W", "value": 68.4, "unit": "%"}, {"measurement": "rate of Grade 3-5 treatment-related AEs", "setting": "[1]; pembrolizumab Q3W", "value": 10.1, "unit": "%"}, {"measurement": "response rate", "setting": "[1]; pembrolizumab Q3W", "value": 32.9, "unit": "%"}, {"measurement": "overall response rate", "setting": "[5]; 10 mg/kg Q2W, 27 evaluable patients", "value": 18.5, "unit": "%"}, {"measurement": "PR, patients", "setting": "[5]; 10 mg/kg Q2W", "value": 14.8, "unit": "%"}, {"measurement": "complete response (CR), patients", "setting": "[5]; 10 mg/kg Q2W", "value": 3.7, "unit": "%"}, {"measurement": "progressive disease (PD), patients", "setting": "[5]; 10 mg/kg Q2W", "value": 48.1, "unit": "%"}, {"measurement": "Grade ≥3 AEs, patients", "setting": "[5]; five patients", "value": 15.6, "unit": "%"}, {"measurement": "median DoR", "setting": "[5]; in vivo", "value": "not yet reached"}, {"measurement": "median time to response", "setting": "[5]; range: 7.3-32.4 weeks", "value": 17.9, "unit": "weeks"}]}
{"compound": "CCOC(=O)C1=C(C)NC(C)=C(C(=O)OCC)C1c1ccccc1/C=C/C(=O)OC(C)(C)C", "note": "[lacidipine]", "values": [{"measurement": "proliferation", "setting": "SUM159", "value": "dose-dependent decrease in proliferation"}, {"measurement": "proliferation", "setting": "MDA-MB-231", "value": "dose-dependent decrease in proliferation"}]}
{"compound": "COC(=O)C1=C(C#N)NC(C)=C(C(=O)OC(C)C)C1c1cccc([N+](=O)[O-])c1", "note": "(centres unmarked) [nivaldipine]", "values": [{"measurement": "proliferation", "setting": "SUM159", "value": "dose-dependent decrease in proliferation"}, {"measurement": "proliferation", "setting": "MDA-MB-231", "value": "dose-dependent decrease in proliferation"}]}
{"compound": "recombinant TGFβ1: recombinant human TGF-β1 (CHO cell derived)", "values": [{"measurement": "PERK/eIF2α/ATF4/ATF3 axis", "setting": "MCF10A", "value": "induced the PERK/eIF2α/ATF4/ATF3 axis"}]}
{"compound": "CC(=O)O[C@@]12CO[C@@H]1C[C@H](O)[C@@]1(C)C(=O)[C@H](O)C3=C(C)[C@@H](OC(=O)[C@H](O)[C@@H](NC(=O)OC(C)(C)C)c4ccccc4)C[C@@](O)([C@@H](OC(=O)c4ccccc4)[C@H]21)C3(C)C", "note": "[docetaxel]", "values": [{"measurement": "limiting dilution assay, tumors", "setting": "MDA-MB-231 xenografts; 5 weeks with 5×10^4 cells, vehicle 12/12", "value": "8/12"}, {"measurement": "limiting dilution assay, tumors", "setting": "MDA-MB-231 xenografts; after six weeks, vehicle 6/12", "value": "8/12"}, {"measurement": "apoptosis levels (cleaved caspase-3)", "setting": "MDA-MB-231 xenografts; relative to the combination group", "value": "higher apoptosis levels"}, {"measurement": "limiting dilution assay, tumors", "setting": "SUM159 xenografts; 7 weeks with 5×10^4 cells, vehicle 12/12", "value": "12/12"}, {"measurement": "CD44+/CD24−/low population (flow cytometry)", "setting": "SUM159 xenografts; mouse, in vivo", "value": "slight increase"}, {"measurement": "primary and secondary MSFE of single tumor cells isolated from tumor tissue", "setting": "SUM159 xenografts; mouse, in vivo", "value": "dramatic increase"}, {"measurement": "limiting dilution assay, tumors", "setting": "SUM159 xenografts; week nine with 2×10^4 cells, vehicle 7/12", "value": "3/12"}]}
